Test results taken from US20250114338A1, “TETRAHYDRO-PYRIDO[3,4-b]INDOLE ESTROGEN RECEPTOR MODULATORS AND USES THEREOF” (Genentech, Inc., priority 2014, published 2025).
pEC50: −log10 of the molar value.

Test system: ER-alpha MCF7
Test: ER-alpha MCF7 HCS EC50; stated as measured by in vitro cell proliferation assays of Examples 902 and 903
Format: cell-based
Conditions: Homo sapiens, MCF7, MCF7 cells; Table 1
Excerpt: The CellTiter-Glo® Luminescent Cell Viability Assay is a homogeneous method to determine the number of viable cells in culture based on quantitation of the ATP present, which signals the presence of metabolically active cells. The CellTiter-Glo® Assay is designed for use with multiwell plate formats, making it ideal for automated high-throughput screening (HTS), cell proliferation and cytotoxicity assays. The homogeneous assay procedure involves adding a single reagent (CellTiter-Glo® Reagent) directly to cells cultured in serum-supplemented medium. Cell washing, removal of medium or multiple pipetting steps are not required. The Cell Titer-Glo® Luminescent Cell Viability Assay, including reagents and protocol are commercially available (Promega Corp., Madison, WI, Technical Bulletin TB288).
The assay assesses the ability of compounds to enter cells and inhibit cell proliferation. The assay principle is based on the determination of the number of viable cells present by quantitating the ATP present in a homogenous assay where addition of the Cell Titer-Glo® reagent results in cell lysis and generation of a luminescent signal through the luciferase reaction. The luminescent signal is proportional to the amount of ATP present.
Cell Culture Medium: RPMI or DMEM high glucose, 10% Fetal Bovine Serum, 2 mM L-Glutamine, P/S. Incubate O/N (overnight) at 37° C., 5% CO2.
Day 2—Add Drug to Cells, Compound Dilution, DMSO Plates (serial 1:2 for 9 points). Add 20 μl of compound at 10 mM in the 2nd column of 96 well plate. […] Add 147 μl of Media into all wells. Transfer 3 μl of DMSO+ compound from each well in the DMSO Plate to each corresponding well on Media Plate using Rapidplate® (Caliper, a Perkin-Elmer Co.). For 2 drug combination studies, transfer one drug 1.5 μl of DMSO+ compound from each well in the DMSO Plate to each corresponding well on Media Plate using Rapidplate. Then, transfer another drug 1.5 μl to the medium plate.
Drug Addition to Cells, Cell Plate (1:10 dilution): Add 6 μl of media+ compound directly to cells (54 μl of media on the cells already). Incubate 3 days at 37° C., 5% CO2 in an incubator that will not be opened often.
Day 5—Develop Plates, Thaw Cell Titer Glo Buffer at room temperature: Remove Cell Plates from 37° C. and equilibrate to room temperature for about 30 minutes. Add Cell Titer-Glo® Buffer to Cell Titer-Glo® Substrate (bottle to bottle). Add 30 μl Cell Titer-Glo® Reagent (Promega cat. #G7572) to each well of cells. Place on plate shaker for about 30 minutes. Read luminescence on Analyst HT Plate Reader (half second per well).
Cell viability assays and combination assays: Cells were seeded at 1000-2000 cells/well in 384-well plates for 16 h. On day two, nine serial 1:2 compound dilutions were made in DMSO in a 96 well plate. The compounds were further diluted into growth media using a Rapidplate® robot (Zymark Corp., Hopkinton, MA). The diluted compounds were then added to quadruplicate wells in 384-well cell plates and incubated at 37° C. and 5% CO2. After 4 days, relative numbers of viable cells were measured by luminescence using Cell Titer-Glo® (Promega) according to the manufacturer's instructions and read on a Wallac Multilabel Reader® (PerkinElmer, Foster City). EC50 values were calculated using Prism® 4.0 software (GraphPad, San Diego).
5 ul of each individual compound concentration and each control compound was transferred to the cell plate. Fulvestrant was added to control wells at a final concentration of 100 nM). DMSO was added to negative control wells (0.2% v/v).

Row | pEC50 | SMILES
1 | 9.05 | C[C@@H]1Cc2c([nH]c3ccccc23)[C@@H](c2ccc(OCCN3CC(CF)C3)nc2)N1CC(C)(C)F [Example 111, (1R,3R)-2-(2-fluoro-2-methylpropyl)-1-(6-(2-(3-(fluoromethyl)azetidin-1-yl)ethoxy)pyridin-3-yl)-3-methyl-2,3,4,9-tetrahydro-1H-pyrido[3,4-b]indole]
2 | 10.04 | C[C@@H]1Cc2c([nH]c3ccccc23)[C@@H](c2ncc(OCCN3CC(CF)C3)cc2F)N1CC(C)(C)F [Example 112, (1S,3R)-2-(2-fluoro-2-methylpropyl)-1-(3-fluoro-5-(2-(3-(fluoromethyl)azetidin-1-yl)ethoxy)pyridin-2-yl)-3-methyl-2,3,4,9-tetrahydro-1H-pyrido[3,4-b]indole]
3 | 9.15 | C[C@@H]1Cc2c([nH]c3ccccc23)[C@@H](c2c(F)cc(OCCN3CC(CF)C3)cc2F)N1CC1(C)COC1 [Example 114, (1R,3R)-1-(2,6-difluoro-4-(2-(3-(fluoromethyl)azetidin-1-yl)ethoxy)phenyl)-3-methyl-2-((3-methyloxetan-3-yl)methyl)-2,3,4,9-tetrahydro-1H-pyrido[3,4-b]indole]

Same assay, conditions: Homo sapiens, MCF7, MCF7 cells; Table 2

Row | SMILES | pEC50
4 | C[C@@H]1Cc2c([nH]c3ccccc23)[C@@H](c2c(F)cc(OCCN3CC(CF)C3)cc2F)N1C(=O)C1CC(F)C1 (stereo in doubt) [Example 203, [1-[2,6-difluoro-4-[2-[3-(fluoromethyl)azetidin-1-yl]ethoxy]phenyl]-3-methyl-1,3,4,9-tetrahydropyrido[3,4-b]indol-2-yl]-(3-fluorocyclobutyl)methanone] | 8.40
5 | CC(CN1[C@H](c2c(F)cc(OC3CN(CCCF)C3)cc2F)c2[nH]c3ccccc3c2C[C@H]1C)C(=O)O (stereo in doubt) [Example 350, 3-[1-[2,6-difluoro-4-[1-(3-fluoropropyl)azetidin-3-yl]oxy-phenyl]-3-methyl-1,3,4,9-tetrahydropyrido[3,4-b]indol-2-yl]-2-methyl-propanoic acid] | 7.85
6 | C[C@@H]1Cc2c([nH]c3ccccc23)[C@@H](c2c(F)cc(OCCN3CC(CF)C3)cc2F)N1CC(C)(C)O [Example 127, 1-[(1R,3R)-1-[2,6-difluoro-4-[2-[3-(fluoromethyl)azetidin-1-yl]ethoxy]phenyl]-3-methyl-1,3,4,9-tetrahydropyrido[3,4-b]indol-2-yl]-2-methyl-propan-2-ol] | 9.19
7 | C[C@@H]1Cc2c([nH]c3ccccc23)[C@@H](c2c(F)cc(OC3CNC3)cc2F)N1CC(C)(C)F [Example 132, (1R,3R)-1-[4-(azetidin-3-yloxy)-2,6-difluoro-phenyl]-2-(2-fluoro-2-methyl-propyl)-3-methyl-1,3,4,9-tetrahydropyrido[3,4-b]indole] | 9.51
8 | C[C@@H]1Cc2c([nH]c3ccccc23)[C@@H](c2c(F)cc(OCCN3CC(CF)C3)cc2F)N1C1CCC1 [Example 134, (1R,3R)-2-cyclobutyl-1-[2,6-difluoro-4-[2-[3-(fluoromethyl)azetidin-1-yl]ethoxy]phenyl]-3-methyl-1,3,4,9-tetrahydropyrido[3,4-b]indole] | 9.27
9 | C[C@@H]1Cc2c([nH]c3ccccc23)[C@@H](c2c(F)cc(OCCN3CC(CF)C3)cc2F)N1C(=O)C1CCCCC1 [Example 137, cyclohexyl((1R,3R)-1-(2,6-difluoro-4-(2-(3-(fluoromethyl)azetidin-1-yl)ethoxy)phenyl)-3-methyl-3,4-dihydro-1H-pyrido[3,4-b]indol-2(9H)-yl)methanone] | 7.55
10 | C[C@@H]1Cc2c([nH]c3ccccc23)[C@@H](c2c(F)cc(OCCN3CC(CF)C3)cc2F)N1C(=O)C(C)(C)C [Example 138, 1-[(1R,3R)-1-[2,6-difluoro-4-[2-[3-(fluoromethyl)azetidin-1-yl]ethoxy]phenyl]-3-methyl-1,3,4,9-tetrahydropyrido[3,4-b]indol-2-yl]-2,2-dimethyl-propan-1-one] | 9.31
11 | C[C@@H]1Cc2c([nH]c3ccccc23)[C@@H](c2c(F)cc(OCCN3CC(CF)C3)cc2F)N1C(=O)C1CC1 [Example 139, cyclopropyl((1R,3R)-1-(2,6-difluoro-4-(2-(3-(fluoromethyl)azetidin-1-yl)ethoxy)phenyl)-3-methyl-3,4-dihydro-1H-pyrido[3,4-b]indol-2(9H)-yl)methanone] | 8.61
12 | C[C@@H]1CCN(CCOc2cc(F)c([C@@H]3c4[nH]c5ccccc5c4C[C@@H](C)N3CC(C)(C)F)c(F)c2)C1 [Example 141, (1R,3R)-1-(2,6-difluoro-4-(2-((R)-3-methylpyrrolidin-1-yl)ethoxy)phenyl)-2-(2-fluoro-2-methylpropyl)-3-methyl-2,3,4,9-tetrahydro-1H-pyrido[3,4-b]indole] | 9.82

Now from value to compound:

Row | pEC50 | SMILES
13 | 9.84 | CC(C)(F)CN1[C@@H](CO)Cc2c([nH]c3ccccc23)[C@@H]1c1c(F)cc(OCCN2CC(CF)C2)cc1F [Example 131, ((1S,3R)-1-(2,6-difluoro-4-(2-(3-(fluoromethyl)azetidin-1-yl)ethoxy)phenyl)-2-(2-fluoro-2-methylpropyl)-2,3,4,9-tetrahydro-1H-pyrido[3,4-b]indol-3-yl)methanol]
14 | 10.25 | C[C@@H]1Cc2c([nH]c3ccccc23)[C@@H](c2ccc(OCCN3CC(CF)C3)cc2F)N1CC(C)(C)F [Example 133, (1R,3R)-2-(2-fluoro-2-methylpropyl)-1-(2-fluoro-4-(2-(3-(fluoromethyl)azetidin-1-yl)ethoxy)phenyl)-3-methyl-2,3,4,9-tetrahydro-1H-pyrido[3,4-b]indole]
15 | 10.01 | CC(C)(F)CN1[C@H](CF)Cc2c([nH]c3ccccc23)[C@H]1c1c(F)cc(OCCN2CC(CF)C2)cc1F [Example 135, (1R,3S)-1-[2,6-difluoro-4-[2-[3-(fluoromethyl)azetidin-1-yl]ethoxy]phenyl]-3-(fluoromethyl)-2-(2-fluoro-2-methyl-propyl)-1,3,4,9-tetrahydropyrido[3,4-b]indole]
16 | 9.94 | C[C@@H]1Cc2c([nH]c3ccccc23)[C@@H](c2c(F)cc(OCCN3CC(CF)C3)cc2F)N1CC1(F)COC1 [Example 136, (1R,3R)-1-[2,6-difluoro-4-[2-[3-(fluoromethyl)azetidin-1-yl]ethoxy]phenyl]-2-[(3-fluorooxetan-3-yl)methyl]-3-methyl-1,3,4,9-tetrahydropyrido[3,4-b]indole]
17 | 9.89 | CC1CN(CCOc2cc(F)c([C@@H]3c4[nH]c5ccccc5c4C[C@@H](C)N3CC(C)(C)F)c(F)c2)C1 [Example 140, (1R,3R)-1-[2,6-difluoro-4-[2-(3-methylazetidin-1-yl)ethoxy]phenyl]-2-(2-fluoro-2-methyl-propyl)-3-methyl-1,3,4,9-tetrahydropyrido[3,4-b]indole]
18 | 10.05 | C[C@@H]1Cc2c([nH]c3ccccc23)[C@@H](c2c(F)cc(OC[C@H](C)N3CCCC3)cc2F)N1CC(C)(C)F [Example 142, (1R,3R)-1-[2,6-difluoro-4-[(2S)-2-pyrrolidin-1-ylpropoxy]phenyl]-2-(2-fluoro-2-methyl-propyl)-3-methyl-1,3,4,9-tetrahydropyrido[3,4-b]indole]
19 | 10.11 | C[C@@H]1Cc2c([nH]c3ccccc23)[C@@H](c2c(F)cc(OCCCN3CC(CF)C3)cc2F)N1CC(C)(C)F [Example 143, (1R,3R)-1-[2,6-difluoro-4-[3-[3-(fluoromethyl)azetidin-1-yl]propoxy]phenyl]-2-(2-fluoro-2-methyl-propyl)-3-methyl-1,3,4,9-tetrahydropyrido[3,4-b]indole]
20 | 9.84 | C[C@@H]1Cc2c([nH]c3ccccc23)[C@@H](c2c(F)cc(/C=C/CN3CC(CF)C3)cc2F)N1CC(C)(C)F [Example 144, (1R,3R)-1-[2,6-difluoro-4-[(E)-3-[3-(fluoromethyl)azetidin-1-yl]prop-1-enyl]phenyl]-2-(2-fluoro-2-methyl-propyl)-3-methyl-1,3,4,9-tetrahydropyrido[3,4-b]indole]
